16 compounds from patent publication US8314148B2, “Selective hydroxamate based MMP inhibitors” (Novartis AG, priority 2006, dated 2012) can be followed below.

pIC50: −log10 of the molar value. Bounds are passed on as bounds.

One data set concerns the target MMP09 (Homo sapiens, UniProt P14780). The data set can be described thus: MMP assay, determination of IC50 (fluorescence). The format is biochemical. The note with it: human MMP 0.5 nM, substrate 5 μM, 1 hour preincubation, pH 7.5. The protocol: (§1) The activities of a compound according to the present invention can be assessed by the following methods well-described in the art. Determination of IC50 values in MMP assays
(§2) Dose-response curves are prepared in DMSO/water solution (90/10, v/v) in 96-well plate format and stored at 4° C. up to 24 hours prior to analysis. In all steps poly-propylene pipette tips are changed avoiding cross-contamination or compound carry over. On the day of the assay, each compound is further diluted (1/33.33; 96-well plate format) in water containing 0.05% CHAPS to 3-times the desired assay concentration. In the assay for each compound, 11 concentrations ranging from 30 to 0.0003 μM are investigated (0.0003, 0.001, 0.003, 0.01, 0.03, 0.1, 0.3, 1, 3, 10, 30 μM). A three-fold concentrated MMP solution is prepared in two-fold concentrated assay buffer 100 mM Tris-HCl buffer, pH 7.5 containing 100 mM NaCl, 10 mM CaCl2, 10 μM ZnCl2, 0.05% Brij-35 and dispensed in 96-well Greiner plates. Similarly a three-fold concentrated substrate solution (15 μM) is prepared in 100 mM Tris-HCl buffer, pH 7.5 containing 100 mM NaCl, 10 mM CaCl2, 10 μM ZnCl2, 0.05% Brij-35 and dispensed in 96-well Greiner plates. Transfer of compounds, substrate and enzyme from 96-well plates to 384-well plates is made using either Cybi™well or Cybi™disk devices.
(§3) The assay procedure is the following, in each well, 10 μL water/CHAPS (±test compound) is added, followed by 10 μL human MMP solution (final assay concentration 0.5 nM). After 1 hour of incubation at room temperature the assay is started by addition of 10 μL substrate solution (final concentration 5 μM).
(§4) The reaction is allowed to proceed for 1 hours at ambient temperature (˜20-22° C.). At the end of the incubation the fluorescence is measured as described above.
(§5) The apparent inhibition constant, IC50, is determined from the plot of percentage of inhibition vs. inhibitor concentration using non-linear regression analysis software (XLfit, Vers. 3.0.5; ID Business Solution Ltd., Guildford, Surrey, UK).

The target of a further data set is MMP12 (Homo sapiens, UniProt P39900). In words: MMP assay, determination of IC50 (fluorescence). The note with it: human MMP 0.5 nM, substrate 5 μM, 1 hour preincubation, pH 7.5. In kind it is biochemical. The protocol:
as §1, §2, §3, §4, §5

The target of another data set is T1, MMP02 (Homo sapiens, UniProt P08253).
T1 sequence (P08253 110-660): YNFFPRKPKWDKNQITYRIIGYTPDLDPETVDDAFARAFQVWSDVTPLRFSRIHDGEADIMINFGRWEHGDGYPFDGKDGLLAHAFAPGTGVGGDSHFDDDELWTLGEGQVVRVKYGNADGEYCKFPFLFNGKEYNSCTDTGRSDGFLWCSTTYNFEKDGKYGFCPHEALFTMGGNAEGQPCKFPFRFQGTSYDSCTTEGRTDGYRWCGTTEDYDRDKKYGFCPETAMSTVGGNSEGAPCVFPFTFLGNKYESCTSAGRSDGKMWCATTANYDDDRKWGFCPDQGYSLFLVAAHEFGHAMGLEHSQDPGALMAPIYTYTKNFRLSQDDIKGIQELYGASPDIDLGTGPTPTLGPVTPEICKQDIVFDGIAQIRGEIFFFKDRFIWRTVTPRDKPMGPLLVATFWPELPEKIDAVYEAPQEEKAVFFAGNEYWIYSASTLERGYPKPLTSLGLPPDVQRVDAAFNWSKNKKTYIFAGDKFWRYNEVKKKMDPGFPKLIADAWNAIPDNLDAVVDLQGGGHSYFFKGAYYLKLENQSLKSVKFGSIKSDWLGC
In words: MMP assay, determination of IC50 (fluorescence). In kind it is biochemical. Conditions: human MMP 0.5 nM, substrate 5 μM, 1 hour preincubation, pH 7.5. The protocol:
as §1, §2, §3, §4, §5

In another data set the target is MMP13 (Homo sapiens, UniProt P45452). The data set can be described thus: MMP assay, determination of IC50 (fluorescence). The format is biochemical. The note with it: human MMP 0.5 nM, substrate 5 μM, 1 hour preincubation, pH 7.5. The protocol:
as §1, §2, §3, §4, §5

MMP09, sequence (P14780 94-707): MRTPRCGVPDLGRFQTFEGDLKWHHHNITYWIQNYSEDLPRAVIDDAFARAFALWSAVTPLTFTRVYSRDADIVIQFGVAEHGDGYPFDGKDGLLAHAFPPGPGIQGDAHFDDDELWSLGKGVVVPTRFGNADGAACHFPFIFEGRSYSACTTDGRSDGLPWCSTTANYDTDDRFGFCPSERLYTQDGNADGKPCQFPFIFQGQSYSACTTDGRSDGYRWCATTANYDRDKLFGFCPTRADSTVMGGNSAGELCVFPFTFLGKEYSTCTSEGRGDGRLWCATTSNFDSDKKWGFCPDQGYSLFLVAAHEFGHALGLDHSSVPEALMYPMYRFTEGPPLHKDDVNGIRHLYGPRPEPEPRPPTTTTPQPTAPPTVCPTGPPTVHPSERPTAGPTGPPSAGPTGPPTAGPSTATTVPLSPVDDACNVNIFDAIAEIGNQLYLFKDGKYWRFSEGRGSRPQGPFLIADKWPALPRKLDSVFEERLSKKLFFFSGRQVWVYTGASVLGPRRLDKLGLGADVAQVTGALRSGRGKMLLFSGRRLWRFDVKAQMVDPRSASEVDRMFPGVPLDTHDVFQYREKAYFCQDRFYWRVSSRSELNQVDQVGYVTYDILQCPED
MMP12, sequence (P39900 106-470): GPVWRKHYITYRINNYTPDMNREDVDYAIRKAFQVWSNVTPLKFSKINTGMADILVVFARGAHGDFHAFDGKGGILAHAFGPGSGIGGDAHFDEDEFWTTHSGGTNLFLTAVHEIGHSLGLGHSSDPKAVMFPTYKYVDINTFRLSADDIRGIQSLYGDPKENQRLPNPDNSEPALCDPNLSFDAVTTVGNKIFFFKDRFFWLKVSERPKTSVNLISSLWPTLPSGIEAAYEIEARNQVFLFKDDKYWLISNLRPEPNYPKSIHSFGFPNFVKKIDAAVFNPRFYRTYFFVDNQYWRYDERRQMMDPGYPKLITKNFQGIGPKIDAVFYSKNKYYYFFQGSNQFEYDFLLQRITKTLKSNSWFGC

What is called pIC50 is the negative decadic logarithm of the IC50, by convention in mol/L. A high value points to a low IC50. In the case of `CCc1cccc(S(=O)(=O)N(CCC(C)C)[C@@H](C(=O)NO)C(C)(C)C)c1` [Example 2-7], the pIC50 was 5.11 against MMP09, 6.65 against MMP12, 4.86 against MMP02 and 6.30 against MMP13.

For the compound `CC(C)CCN([C@@H](C(=O)NO)C(C)(C)C)S(=O)(=O)c1cccc(NC(=O)NC(C)C)c1` [Example 2-34], the pIC50 against MMP09 was 5.16; on MMP12, 7.19; on MMP02, 5.43; on MMP13, 5.92.

With `CCNC(=O)Nc1cccc(S(=O)(=O)N(CCCN2CCCCC2)[C@@H](C(=O)NO)C(C)(C)C)c1` [Example 4-4], the pIC50 is 6.05 against MMP09, 8.82 against MMP12, 5.87 against MMP02 and 7.30 against MMP13.

For `CCCN([C@@H](C(=O)NO)C(C)(C)C)S(=O)(=O)c1cccc(C(=O)OC)c1` [Example 2-39], the pIC50 is less than 4.52 at MMP09, 6.40 on MMP12, less than 4.52 against MMP02 and 5.18 at MMP13.

Turning to `COc1cccc(S(=O)(=O)N(CCCc2cccnc2)[C@@H](C(=O)NO)C(C)(C)C)c1` [Example 5], the pIC50 was 6.40 against MMP09, 8.26 at MMP12, 5.11 against MMP02 and 7.15 at MMP13.

Consider `COc1cccc(S(=O)(=O)N(CCO)[C@@H](C(=O)NO)C(C)(C)C)c1` [Example 6], for which the pIC50 against MMP09 was 6.52; at MMP12 it was 8.70; at MMP02, 5.52; against MMP13, 7.52.

As to `CC(=O)Nc1cccc(S(=O)(=O)N(CCC(C)C)[C@@H](C(=O)NO)C(C)(C)C)c1` [Example 2-13], the pIC50 against MMP09 was 4.76; at MMP12, 7.46; against MMP02, 4.99; at MMP13 it was 5.94.

As to `COc1cccc(S(=O)(=O)N(CC(=O)N(C)C)[C@@H](C(=O)NO)C(C)(C)C)c1` [Example 2-27], the pIC50 is 4.64 against MMP09, 6.52 on MMP12, not above 4.40 at MMP02 and 5.31 against MMP13.

The term melting point denotes the temperature, or range, at which the solid turns liquid. The compound `COc1cccc(S(=O)(=O)N(CCC(C)C)[C@@H](C(=O)NO)C(C)(C)C)c1` [Example 1, N-isoamyl-N-(3 Methoxyphenylsulfonyl)D-tert-leucine hydroxamic acid] returned a melting point of 115.5 to 116.5 °C.

As for `CCOc1cccc(S(=O)(=O)N(CCC(C)C)[C@@H](C(=O)NO)C(C)C)c1` [Example 2-17], the pIC50 against MMP09 was 4.90; on MMP12 it was 6.65; against MMP02, 4.55; at MMP13, 5.61.

`CCCN([C@@H](C(=O)NO)C(C)(C)C)S(=O)(=O)c1cccc(C(=O)NC)c1` [Example 2-38]: the pIC50 at MMP09 was less than 4.52; on MMP12, 6.19; at MMP02 it was less than 4.52; against MMP13 it was 4.59.

In the case of `COC(=O)CN([C@@H](C(=O)NO)C(C)(C)C)S(=O)(=O)c1cccc(OC)c1` [Example 2-26], the pIC50 on MMP09 was 5.43; on MMP12, 7.26; against MMP02, 5.06; at MMP13 it was 6.07.

For `COc1cccc(S(=O)(=O)N(CC(C)C)[C@@H](C(=O)NO)C(C)(C)C)c1` [Example 2-6], the pIC50 at MMP09 was 5.82; against MMP12, 7.76; against MMP02 it was 4.95; at MMP13 it was 6.60.

For the compound `CC(C)CCN([C@@H](C(=O)NO)C(C)(C)C)S(=O)(=O)c1cccc(Cl)c1` [Example 2-4], the pIC50 was 6.14 on MMP09, 7.76 against MMP12, 5.77 against MMP02 and 7.02 on MMP13.

For `CC(C)CCN([C@@H](C(=O)NO)C(C)(C)C)S(=O)(=O)c1cccc(N)c1` [Example 2-28], the pIC50 was 5.51 against MMP09, 7.30 against MMP12, 5.50 against MMP02 and 5.81 against MMP13.

As for `COc1cccc(S(=O)(=O)N(Cc2ccccc2)[C@@H](C(=O)NO)C(C)(C)C)c1` [Example 2-23], the pIC50 against MMP09 was 5.46; against MMP12 it was 6.84; on MMP02, 4.90; against MMP13, 6.10.
